US9458092B2, “α-Substituted glycinamide derivative” (KISSEI PHARMACEUTICAL CO., LTD., priority 2013, dated 2016)

What was measured:
[1] = biological target: TRPM8 (Rattus norvegicus, UniProt Q8R455); experiment: Confirmation test of inhibitory effects on icilin-induced wet-dog shakes; type: in vivo, female SD rats; parameters: test compounds were orally administered to female SD rats; from tissue; host or cells: whole animal (female SD rats), endogenous channel; conditions: icilin 1 mg/kg i.p. after 1 hour, shakes counted for 5 minutes
TRPM8, sequence (Q8R455 whole entry): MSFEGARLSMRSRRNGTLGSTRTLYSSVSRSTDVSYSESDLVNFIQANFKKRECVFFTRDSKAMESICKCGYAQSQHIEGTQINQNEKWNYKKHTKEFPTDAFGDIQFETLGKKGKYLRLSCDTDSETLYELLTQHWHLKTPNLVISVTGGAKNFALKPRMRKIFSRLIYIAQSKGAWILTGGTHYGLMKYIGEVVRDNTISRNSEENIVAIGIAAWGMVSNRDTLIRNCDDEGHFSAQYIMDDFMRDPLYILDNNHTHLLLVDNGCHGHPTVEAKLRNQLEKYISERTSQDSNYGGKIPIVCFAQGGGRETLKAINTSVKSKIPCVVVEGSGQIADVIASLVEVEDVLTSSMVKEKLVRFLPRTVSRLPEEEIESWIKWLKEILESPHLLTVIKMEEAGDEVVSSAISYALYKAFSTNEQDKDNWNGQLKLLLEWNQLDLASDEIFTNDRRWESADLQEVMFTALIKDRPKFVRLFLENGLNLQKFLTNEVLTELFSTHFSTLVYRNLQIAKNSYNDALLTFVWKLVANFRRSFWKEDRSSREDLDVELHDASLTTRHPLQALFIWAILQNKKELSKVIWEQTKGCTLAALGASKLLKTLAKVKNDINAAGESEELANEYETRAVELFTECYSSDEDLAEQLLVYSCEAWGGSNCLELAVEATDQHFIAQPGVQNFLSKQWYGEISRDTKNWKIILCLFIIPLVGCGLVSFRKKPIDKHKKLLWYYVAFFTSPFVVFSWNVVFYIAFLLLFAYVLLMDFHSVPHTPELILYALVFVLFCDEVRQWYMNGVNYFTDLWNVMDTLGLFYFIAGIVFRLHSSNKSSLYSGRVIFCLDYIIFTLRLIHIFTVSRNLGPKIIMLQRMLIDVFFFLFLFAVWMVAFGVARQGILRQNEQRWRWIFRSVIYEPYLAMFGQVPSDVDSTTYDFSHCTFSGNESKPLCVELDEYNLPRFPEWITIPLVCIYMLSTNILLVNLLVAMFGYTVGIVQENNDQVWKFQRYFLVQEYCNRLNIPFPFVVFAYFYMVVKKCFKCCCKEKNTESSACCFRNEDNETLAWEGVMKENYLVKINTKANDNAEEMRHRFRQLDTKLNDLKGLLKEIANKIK
Procedure: Test compounds were dissolved in dimethylacetamide (wako), and 0.5% methylcellulose solution (wako) was added to make the solution or suspension containing 5% of dimethylacetamide. At a dose of 3 or 10 mg/kg/5 mL of test compounds were orally administered to female SD rats. After 1 hour, wet-dog shakes were induced by the intrapenitoneal injection of icilin (1 mg/kg) which was dissolved in polyethylene glycol 400 (wako). From 5 minutes after the administration of icilin, wet-dog shakes were counted for 5 minutes. For control example, vehicle (a mixture of dimethylacetamide (wako): 0.5% methylcellulose (wako)=5:95) was administrated similarly, and the number of wet-dog shakes was counted in the same manner. A percent inhibition of wet-dog shakes by test compound was calculated from the following formula: [1-(test compound wet-dog shake count/vehicle wet-dog shake count)]×100.

[2] = tested on: overactive bladder induced by acetic acid; experiment: Confirmation test of elongation action of micturition interval of overactive bladder induced by acetic acid; type: in vivo, female SD rats; conditions: Rattus norvegicus, iv, interval before administration = 100%
Procedure: Urethane (sigma) was dissolved into pure water by 25% w/v, and female SD rats were anesthetized with 1.25 g/kg urethane by subcutaneous administration. Cannulae were placed in femoral vein and bladder, and the bladder cannula was connected to both a syringe pump and a pressure transducer. Detrusor overactivity was induced by intravesical infusion of 0.25% acetic acid in saline at a rate of 3.6 mL/h, and intravesical pressure was monitored via pressure transducer concurrently. Test compounds were dissolved into a mixture of dimethylacetamide and saline (20:80), and were administered via the femoral vein. When an average of the three micturition interval before administration was taken as 100%, an average of the three micturition interval after administration was calculated as Elongation of micturition interval (%) Dose and results are shown in tables 46 and 47.

[3] = 1 mg/kg/ml via the femoral vein
[4] = 1 mg/kg/2 ml via the femoral vein

SMILES	% inhibition of Wet-Dog Shake ([1]; dose 3 mg/kg orally) [%]	response vs control in vivo at 1 mg/kg [2, 3] [%]	% inhibition of Wet-Dog Shake ([1]; dose 10 mg/kg orally) [%]	further results
NC(=O)[C@@H](c1ccccc1)N(C(=O)c1cccnc1N)[C@@H]1CCc2c(F)cc(F)cc21 [Example 1-3, 2-Amino-N-[(R)-carbamoylphenylmethyl]-N-[(R)-4,6-difluoroindan-1-yl]nicotinamide]	69	200	–	–
NC(=O)[C@@H](c1ccccc1)N(C(=O)c1cccnc1)[C@@H]1CCc2ccc(Cl)cc21 [Example 2-31LP, N-[(R)-carbamoylphenylmethyl]-N-[(R)-6-chloroindan-1-yl]nicotinamide]	–	176	87	–
NC(=O)[C@@H](c1ccccc1)N(C(=O)c1cccnc1)[C@@H]1CCc2c(F)cc(F)cc21 [Example 1-1, N-[(R)-Carbamoylphenylmethyl]-N-[(R)-4,6-difluoroindan-1-yl]nicotinamide]	–	209	95	–
NC(=O)[C@@H](c1ccccc1)N(C(=O)c1ccccc1)[C@@H]1CCc2ccc(C3CC3)cc21 [Example 2-5LP, N-[(R)-carbamoylphenylmethyl]-N-[(R)-6-cyclopropylindan-1-yl]benzamide]	–	–	89	response vs control in vivo at 1 mg/kg [2, 4]: 177%
NC(=O)[C@@H](c1ccccc1)N(C(=O)c1ccccc1)[C@@H]1CCc2c(F)cc(F)cc21 [Example 2-221LP, N-[(R)-carbamoylphenylmethyl]-N-[(R)-4,6-difluoroindan-1-yl]benzamide]	–	–	100	response vs control in vivo at 1 mg/kg [2, 4]: 154%
COc1ccc2c(c1)[C@H](N(C(=O)c1ccccc1)[C@@H](C(N)=O)c1ccccc1)CC2 [Example 2-4LP, N-[(R)-Carbamoylphenylmethyl]-N-[(R)-6-methoxyindan-1-yl]benzamide]	–	–	79	response vs control in vivo at 1 mg/kg [2, 4]: 156%
NC(=O)[C@@H](c1ccccc1)N(C(=O)c1ccccc1)[C@@H]1CCc2c(F)cc(Cl)cc21 [Example 2-6LP, N-[(R)-carbamoylphenylmethyl]-N-[(R)-6-chloro-4-fluoroindan-1-yl]benzamide]	69	–	–	response vs control in vivo at 0.3 mg/kg ([2]; 0.3 mg/kg/ml via the femoral vein): 184%
COc1ncccc1C(=O)N([C@@H]1CCc2ccc(Cl)cc21)[C@@H](C(N)=O)c1ccccc1 [Example 2-46LP, N-[(R)-carbamoylphenylmethyl]-N-[(R)-6-chloroindan-1-yl]-2-methoxynicotinamide]	79	186	–	–
NC(=O)[C@@H](c1cccnc1)N(C(=O)c1ccccc1O)[C@@H]1CCc2c(F)cc(Cl)cc21 [Example 19-1LP, N-[(R)-carbamoylpyridin-3-ylmethyl]-N-[(R)-6-chloro-4-fluoroindan-1-yl]-2-hydroxybenzamide]	–	178	–	–
Cc1ncccc1C(=O)N([C@@H]1CCc2c(F)cc(Cl)cc21)[C@@H](C(N)=O)c1cccnc1 [Example 12, N-[(R)-carbamoylpyridin-3-ylmethyl]-N-[(R)-6-chloro-4-fluoroindan-1-yl]-2-methylnicotinamide]	–	142	93	–
NC(=O)[C@@H](c1ccccc1)N(C(=O)c1cccnc1N)[C@@H]1CCc2c(F)cc(Cl)cc21 [Example 13, 2-amino-N-[(R)-carbamoylphenylmethyl]-N-[(R)-6-chloro-4-fluoroindan-1-yl]nicotinamide]	93	184	–	–
NC(=O)[C@@H](c1ccccc1)N(C(=O)c1ccccc1N)[C@@H]1CCc2c(F)cc(F)cc21 [Example 6-1, 2-amino-N-[(R)-carbamoylphenylmethyl]-N-[(R)-4,6-difluoroindan-1-yl]benzamide]	–	–	89	response vs control in vivo at 1 mg/kg [2, 4]: 194%
NC(=O)[C@@H](c1cccnc1)N(C(=O)c1ccccc1)[C@@H]1CCc2c(F)cc(Cl)cc21 [Example 2-66LP, N-[(R)-carbamoylpyridin-3-ylmethyl]-N-[(R)-6-chloro-4-fluoroindan-1-yl]benzamide]	–	175	100	–
NC(=O)[C@@H](c1ccccc1)N(C(=O)c1cccnc1)[C@@H]1CCc2c(F)cc(Cl)cc21 [Example 2-23LP, N-[(R)-carbamoylphenylmethyl]-N-[(R)-6-chloro-4-fluoroindan-1-yl]nicotinamide]	56	205	–	–
NC(=O)[C@@H](c1ccccc1)N(C(=O)c1ccccc1)[C@@H]1CCc2ccc(Cl)cc21 [Example 2-2LP, N-[(R)-Carbamoylphenylmethyl]-N-[(R)-6-chloroindan-1-yl]benzamide]	–	–	100	response vs control in vivo at 1 mg/kg [2, 4]: 221%
Cc1scnc1C(=O)N([C@@H]1CCc2c(F)cc(Cl)cc21)[C@@H](C(N)=O)c1ccccc1 [Example 2-147LP, N-[(R)-carbamoylphenylmethyl]-N-[(R)-6-chloro-4-fluoroindan-1-yl]-5-methylthiazole-4-carboxamide]	91	–	–	response vs control in vivo at 1 mg/kg [2, 4]: 146%
NC(=O)[C@@H](c1cccnc1)N(C(=O)c1ccccc1)[C@@H]1CCc2ccc(Cl)cc21 [Example 2-87LP, N-[(R)-carbamoylpyridin-3-ylmethyl]-N-[(R)-6-chloroindan-1-yl]benzamide]	36	–	–	–
CN(C)c1cccc([C@H](C(N)=O)N(C(=O)c2ccccc2O)[C@@H]2CCc3c(F)cc(Cl)cc32)c1 [Example 19-6LP, N-[(R)-carbamoyl-(3-dimethylaminophenyl)methyl]-N-[(R)-6-chloro-4-fluoroindan-1-yl]-2-hydroxybenzamide]	–	–	99	–
Cc1ncsc1C(=O)N([C@@H]1CCc2c(F)cc(Cl)cc21)[C@@H](C(N)=O)c1ccccc1 [Example 15LP, N-[(R)-carbamoylphenylmethyl]-N-[(R)-6-chloro-4-fluoroindan-1-yl]-4-methylthiazole-5-carboxamide]	100	188	–	–
Cc1nccnc1C(=O)N([C@@H]1CCc2c(F)cc(Cl)cc21)[C@@H](C(N)=O)c1ccccc1 [Example 2-175LP, N-[(R)-carbamoylphenylmethyl]-N-[(R)-6-chloro-4-fluoroindan-1-yl]-3-methylpyrazine-2-carboxamide]	40	–	–	–
NC(=O)[C@@H](c1ccccc1)N(C(=O)c1cccc2c1OCC2)[C@@H]1CCc2c(F)cc(Cl)cc21 [Example 2-111LP, N-[(R)-carbamoylphenylmethyl]-N-[(R)-6-chloro-4-fluoroindan-1-yl]-2,3-dihydrobenzofuran-7-carboxamide]	91	–	–	response vs control in vivo at 0.3 mg/kg ([2]; 0.3 mg/kg/2 ml via the femoral vein): 135%
Cc1ncccc1C(=O)N([C@@H]1CCc2c(F)cc(Cl)cc21)[C@@H](C(N)=O)c1ccccc1 [Example 14LP, N-[(R)-carbamoylphenylmethyl]-N-[(R)-6-chloro-4-fluoroindan-1-yl]-2-methylnicotinamide]	100	181	–	–
COc1ncccc1C(=O)N([C@@H]1CCc2c(F)cc(Cl)cc21)[C@@H](C(N)=O)c1ccccc1 [Example 11, N-[(R)-carbamoylphenylmethyl]-N-[(R)-6-chloro-4-fluoroindan-1-yl]-2-methoxynicotinamide]	100	162	–	–
Cc1cccnc1C(=O)N([C@@H]1CCc2c(F)cc(Cl)cc21)[C@@H](C(N)=O)c1ccccc1 [Example 2-152LP, N-[(R)-carbamoylphenylmethyl]-N-[(R)-6-chloro-4-fluoroindan-1-yl]-3-methylpyridine-2-carboxamide]	44	–	–	–
COc1ccccc1C(=O)N([C@@H]1CCc2c(F)cc(Cl)cc21)[C@@H](C(N)=O)c1ccccc1 [Example 2-89LP, N-[(R)-carbamoylphenylmethyl]-N-[(R)-6-chloro-4-fluoroindan-1-yl]-2-methoxybenzamide]	100	–	–	response vs control in vivo at 1 mg/kg [2, 4]: 196%
CSc1ncccc1C(=O)N([C@@H]1CCc2ccc(Cl)cc21)[C@@H](C(N)=O)c1ccccc1 [Example 2-125LP, N-[(R)-carbamoylphenylmethyl]-N-[(R)-6-chloroindan-1-yl]-2-(methylsulfanyl)nicotinamide]	37	–	–	–
NC(=O)[C@@H](c1cccnc1)N(C(=O)c1cccc(F)c1O)[C@@H]1CCc2c(F)cc(Cl)cc21 [Example 19-25LP, N-[(R)-carbamoylpyridin-3-ylmethyl]-N-[(R)-6-chloro-4-fluoroindan-1-yl]-3-fluoro-2-hydroxybenzamide]	–	–	86	–
